Source: patent US8338472B2, “Hexahydrocyclopentyl[F]indazole carboxamides and derivatives thereof as selective glucocorticoid receptor modulators” (Merck Sharp & Dohme Corp., priority 2008, dated 2012)
Where two headings read alike, the source gives them in different places.

What was measured:
Glucocorticoid Receptor = target: T1, Glucocorticoid Receptor (Homo sapiens, UniProt P04150); assay: Trans-Activation Modulation of Glucocorticoid Receptor (GRAMMER), MMTV-LUC reporter gene in A549 cells; assay type: cell-based; conditions: Table 1; for Emax: A549, A549 cells, read-out: Transactivation A549 Cells GRAMMER Emax; for Emax / Transactivation A549 Cells GRAMMER Emax: Emax relative to 300 nM dexamethasone; for EC50: inflection point, read-out: Transactivation A549 Cells GRAMMER IP; for EC50 / Transactivation A549 Cells GRAMMER Emax: A549 cells
T1 construct: These cells express large amount of the GR and are very responsive to GC treatment; endogenous in cells; host or cells: A549 cells transiently transfected with the MMTV-LUC reporter
T1 sequence (P04150 1-777): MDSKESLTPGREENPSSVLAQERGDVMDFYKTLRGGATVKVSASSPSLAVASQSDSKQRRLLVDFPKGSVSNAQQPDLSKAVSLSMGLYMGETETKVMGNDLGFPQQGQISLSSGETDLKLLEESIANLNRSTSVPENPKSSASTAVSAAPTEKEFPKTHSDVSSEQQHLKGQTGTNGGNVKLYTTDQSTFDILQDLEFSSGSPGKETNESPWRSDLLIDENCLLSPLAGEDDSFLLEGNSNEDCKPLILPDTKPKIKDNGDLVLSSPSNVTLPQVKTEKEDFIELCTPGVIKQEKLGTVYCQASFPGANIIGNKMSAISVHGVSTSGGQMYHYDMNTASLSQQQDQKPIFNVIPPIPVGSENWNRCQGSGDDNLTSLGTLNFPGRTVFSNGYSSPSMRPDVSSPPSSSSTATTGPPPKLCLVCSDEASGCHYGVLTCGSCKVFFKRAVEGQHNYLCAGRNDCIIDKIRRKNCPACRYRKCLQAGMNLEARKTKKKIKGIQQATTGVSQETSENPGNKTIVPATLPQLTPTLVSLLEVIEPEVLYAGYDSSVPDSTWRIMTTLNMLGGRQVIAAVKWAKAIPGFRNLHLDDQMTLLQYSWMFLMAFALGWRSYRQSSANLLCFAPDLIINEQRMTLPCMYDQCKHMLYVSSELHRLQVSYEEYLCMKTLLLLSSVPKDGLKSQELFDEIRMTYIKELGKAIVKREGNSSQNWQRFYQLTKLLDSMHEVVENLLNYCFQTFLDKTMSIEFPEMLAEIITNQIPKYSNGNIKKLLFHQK
How it was run: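 Luciferase from a transiently transfected MMTV-LUC reporter was measured after 24 h compound exposure (≤1% DMSO) in A549 or MDA-MB-453 cells. For antagonism, the decrease of 10 nM dexamethasone-induced signal was calculated. For agonism, Emax was referenced to 300 nM dexamethasone.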

[1] = target: T2, glucocorticoid receptor (GR) (Homo sapiens, UniProt P04150); assay: Ligand binding assay (GR BIND), 3H-dexamethasone displacement in MDA-MB-453 cell lysate; conditions: GR BIND Ki, Table 1
T2 sequence (P04150 1-777): T1 sequence (P04150 1-777)
Description: Binding Buffer: TEGM (10 mM Tris-HCl, 1 mM EDTA, 10% glycerol, 1 mM beta-mecaptoethanol, 10 mM Sodium Molybdate, pH 7.2)
50% HAP Slurry: Calbiochem Hydroxylapatite, Fast Flow, in 10 mM Tris, pH 8.0 and 1 mM EDTA.
Wash Buffer: 40 mM Tris, pH7.5, 100 mM KCl, 1 mM EDTA and 1 mM EGTA.
Dexmethasone-methyl-^3H, (DEX*); (Amersham cat# TRK645)
Dexamethasone(DEX) (Sigma, cat# D1756):
The cell pellet is washed twice with TEGM (10 mM Tris-HCl, 1 mM EDTA, 10% glycerol, 1 mM beta-mercaptoethanol, 10 mM Sodium Molybdate, pH 7.2). After the final wash, the cells are resuspended in TEGM at a concentration of 10^7 cells/mL. The cell suspension is snap frozen in liquid nitrogen or ethanol/dry ice bath and transferred to −80° C. freezer on dry ice. Before setting up the binding assay, the frozen samples are left on ice-water to just thaw (˜1 hr). Then the samples are centrifuged at 12,500 g to 20,000 g for 30 min at 4° C. The supernatant is used to set-up assay right away. If using 50 μL of supernatant, the test compound can be prepared in 50 μL of the TEGM buffer.
Procedure for Multiple Compound Screening
1×TEGM buffer is prepared, and the isotope-containing assay mixture is prepared in the following order: EtOH (2% final concentration in reaction), ^3H-DEX (Amersham Biosciences) and 1×TEGM. [e.g. For 100 samples, 200 μL (100×2) of EtOH+4.25 μL of 1:10 ^3H-Dex stock+2300 μL (100×23) 1×TEGM]. The compound is serially diluted, e.g., if starting final conc. is 1 μM, and the compound is in 25 μL of solution, for duplicate samples, 75 μL of 4×1 μM solution is made and 3 μL of 100 μM is added to 72 μL of buffer, and 1:5 serial dilution.
25 μL of ^3H-DEX (6 nM) trace and 25 μL compound solution are first mixed together, followed by addition of 50 μL receptor solution. The reaction is gently mixed, spun briefly at about 200 rpm and incubated at 4° C. overnight. 100 μL of 50% HAP slurry is prepared and added to the incubated reaction which is then vortexed and incubated on ice for 5 to 10 minutes. The reaction mixture is vortexed twice more to resuspend HAP while incubating reaction. The samples in 96-well format are then washed in wash buffer using The FilterMate™ Universal Harvester plate washer (Packard). The washing process transfers HAP pellet containing ligand-bound expressed receptor to Unifilter-96 GF/B filter plate (Packard). The HAP pellet on the filter plate is incubated with 50 μL of MICROSCINT (Packard) scintillint for 30 minutes before being counted on the TopCount microscintillation counter (Packard). IC50s are calculated using DEX as a reference.

human GR = target: T3, human GR (Homo sapiens, UniProt P04150); assay: Transrepression Assay (GITAR), TNFα-β-lactamase reporter gene in U937 cells; assay type: cell-based; conditions: for GITAR Greater than by GRAMMER % SEP: GITAR Emax minus GRAMMER Emax; for EC50: inflection point, read-out: Transrepression U937 Cells GITAR IP; for EC50 / Transrepression U937 Cells GITAR Emax: U937 cells
T3 construct: U937 cells contain an endogenous glucocorticoid receptor (GR); endogenous in cells; host or cells: U937 cells stably transfected with the TNF-alpha promoter/beta-lactamase reporter
T3 sequence (P04150 1-777): T1 sequence (P04150 1-777)
How it was run: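 Repression of PMA (5 ng/ml final)/LPS (100 ng/ml final)-induced TNF-α promoter activity, read as β-lactamase cleavage of CCF2-AM, in stably transfected U937 cells expressing native GR. Compound added 30-45 min before stimulation, overnight (~18 hr) 37° C; normalized to 100 nM dexamethasone (100%).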

[2] = U-937, U937 cells, activity repressed by 100 nM dexamethasone = 100%, Table 1, read-out: Transrepression U937 Cells GITAR Emax
[3] = U-937, text statement, 100 nM dexamethasone = 100%, read-out: maximal activity in the transrepression assay (GITAR)
[4] = activity repressed by 100 nM dexamethasone = 100%, Table 1

| Structure (SMILES) | Emax (Glucocorticoid Receptor) [%] | EC50 (Glucocorticoid Receptor) [nM] | Ki [1] [nM] | GITAR Greater than by GRAMMER % SEP (human GR; Table 1) [%] | Emax (human GR; [2]) [%] | Emax (human GR; [3]) [%] | EC50 (human GR; Table 1) [nM] | Transactivation A549 Cells GRAMMER Emax (Glucocorticoid Receptor) [%] | Transrepression U937 Cells GITAR Emax (human GR; [4]) [%] |
| --- | --- | --- | --- | --- | --- | --- | --- | --- | --- |
| C[C@]12Cc3cnn(-c4ccc(F)cc4)c3C=C1CC[C@@H]2C(=O)N(CCO)CC(O)C(F)(F)F (stereo partly drawn) [Compound 60, (4αR,5S)-1-(4-fluorophenyl)-N-(2-hydroxyethyl)-4α-methyl-N-(3,3,3-trifluoro-2-hydroxypropyl)-1,4,4α,5,6,7-hexahydrocyclopenta[f]indazole-5-carboxamide] | 55.6 | 46.3 | 12.6 | 29.8 | 85.4 | > 5 | 87.1 | – | – |
| C[C@]12Cc3cnn(-c4ccc(F)cc4)c3C=C1CC[C@@H]2C(=O)N(CC1CCC1)CC1CCCO1 (stereo partly drawn) [Compound 64, (4αR,5S)-N-(cyclobutylmethyl)-1-(4-fluorophenyl)-4α-methyl-N-(tetrahydrofuran-2-ylmethyl)-1,4,4α,5,6,7-hexahydrocyclopenta[f]indazole-5-carboxamide] | 27.1 | 674 | 1.9 | 9.5 | 36.6 | > 5 | 479 | – | – |
| CC(C)CN(C[C@H](C)O)C(=O)[C@H]1CCC2=Cc3c(cnn3-c3ccc(F)cc3)C[C@@]21C [Compound 66, (4αR,5S)-1-(4-fluorophenyl)-N-[(2S)-2-hydroxypropyl]-N-isobutyl-4α-methyl-1,4,4α,5,6,7-hexahydrocyclopenta[f]indazole-5-carboxamide] | 67.6 | 613 | 8.7 | 10.5 | 78.1 | > 5 | 685 | – | – |
| C[C@]12Cc3cnn(-c4ccc(F)cc4)c3C=C1CC[C@@H]2C(=O)N(CCO)c1ccccc1 [Compound 68, (4αR,5S)-1-(4-fluorophenyl)-N-(2-hydroxyethyl)-4α-methyl-N-phenyl-1,4,4α,5,6,7-hexahydrocyclopenta[f]indazole-5-carboxamide] | 3.8 | 128 | 3.8 | 14.4 | 18.2 | > 5 | 1020 | – | – |
| C[C@H](O)CN(CCc1ccccc1F)C(=O)[C@H]1CCC2=Cc3c(cnn3-c3ccc(F)cc3)C[C@@]21C [Compound 69, (4αR,5S)-1-(4-fluorophenyl)-N-[2-(2-fluorophenyl)ethyl]-N-[(2S)-2-hydroxypropyl]-4α-methyl-1,4,4α,5,6,7-hexahydrocyclopenta[f]indazole-5-carboxamide] | 21.9 | 680 | 5.4 | 42.6 | 64.4 | > 5 | 714 | – | – |
| CN(CC(O)C(F)(F)F)C(=O)[C@H]1CCC2=Cc3c(cnn3-c3ccc(F)cc3)C[C@@]21C (stereo partly drawn) [Compound 70, (4αR,5S)-1-(4-fluorophenyl)-N,4α-dimethyl-N-(3,3,3-trifluoro-2-hydroxypropyl)-1,4,4α,5,6,7-hexahydrocyclopenta[f]indazole-5-carboxamide] | 62.5 | 231 | 10.7 | 24.5 | 86.9 | > 5 | 276 | – | – |
| CCN(CC(O)C(F)(F)F)C(=O)[C@H]1CCC2=Cc3c(cnn3-c3ccc(F)cc3)C[C@@]21C (stereo partly drawn) [Compound 71, (4αR,5S)-N-ethyl-1-(4-fluorophenyl)-4α-methyl-N-(3,3,3-trifluoro-2-hydroxypropyl)-1,4,4α,5,6,7-hexahydrocyclopenta[f]indazole-5-carboxamide] | 71.7 | 151 | 2.6 | 24.0 | 95.6 | > 5 | 85 | – | – |
| CCN(CC(O)C(F)(F)F)C(=O)[C@H]1CCC2=Cc3c(cnn3-c3ccc(F)cc3)C[C@@]21C (stereo partly drawn) [Compound 72, (4αR,5S)-N-ethyl-1-(4-fluorophenyl)-4α-methyl-N-(3,3,3-trifluoro-2-hydroxypropyl)-1,4,4α,5,6,7-hexahydrocyclopenta[f]indazole-5-carboxamide] | – | 37 | 2.3 | 19.6 | – | – | 43.9 | 71.2 | 90.8 |

Other lines, results leading:

| Emax (Glucocorticoid Receptor) [%] | EC50 (Glucocorticoid Receptor) [nM] | Ki [1] [nM] | GITAR Greater than by GRAMMER % SEP (human GR; Table 1) [%] | Emax (human GR; [2]) [%] | Emax (human GR; [3]) [%] | EC50 (human GR; Table 1) [nM] | Transactivation A549 Cells GRAMMER Emax (Glucocorticoid Receptor) [%] | Transrepression U937 Cells GITAR Emax (human GR; [4]) [%] | Structure (SMILES) |
| --- | --- | --- | --- | --- | --- | --- | --- | --- | --- |
| 75.2 | 117 | 3.9 | 1.5 | 76.7 | > 5 | 91.5 | – | – | C[C@]12Cc3cnn(-c4ccc(F)cc4)c3C=C1CC[C@@H]2C(=O)N(Cc1ccccc1F)CC(O)C(F)(F)F (stereo partly drawn) [Compound 59, (4αR,5S)-N-(2-fluorobenzyl)-1-(4-fluorophenyl)-4α-methyl-N-(3,3,3-trifluoro-2-hydroxypropyl)-1,4,4α,5,6,7-hexahydrocyclopenta[f]indazole-5-carboxamide] |
| 82.4 | 55.6 | 1 | 14.0 | 96.5 | > 5 | 41.2 | – | – | CCCN(CC(O)C(F)(F)F)C(=O)[C@H]1CCC2=Cc3c(cnn3-c3ccc(F)cc3)C[C@@]21C (stereo partly drawn) [Compound 61, (4αR,5S)-1-(4-fluorophenyl)-4α-methyl-N-propyl-N-(3,3,3-trifluoro-2-hydroxypropyl)-1,4,4α,5,6,7-hexahydrocyclopenta[f]indazole-5-carboxamide] |
| 18 | 602 | 6.9 | 23.5 | 41.5 | > 5 | 688 | – | – | CCCN(CC1CCCO1)C(=O)[C@H]1CCC2=Cc3c(cnn3-c3ccc(F)cc3)C[C@@]21C (stereo partly drawn) [Compound 62, (4αR,5S)-1-(4-fluorophenyl)-4α-methyl-N-propyl-N-(tetrahydrofuran-2-ylmethyl)-1,4,4α,5,6,7-hexahydrocyclopenta[f]indazole-5-carboxamide] |
| – | 725 | 6 | 17.6 | – | – | 713 | 28.3 | 45.9 | CCCN(CC1CCCO1)C(=O)[C@H]1CCC2=Cc3c(cnn3-c3ccc(F)cc3)C[C@@]21C (stereo partly drawn) [Compound 63, (4αR,5S)-1-(4-fluorophenyl)-4α-methyl-N-propyl-N-(tetrahydrofuran-2-ylmethyl)-1,4,4α,5,6,7-hexahydrocyclopenta[f]indazole-5-carboxamide] |
| 72.8 | 431 | 4.7 | 8.4 | 81.2 | > 5 | 424 | – | – | CCCN(C[C@H](C)O)C(=O)[C@H]1CCC2=Cc3c(cnn3-c3ccc(F)cc3)C[C@@]21C [Compound 65, (4αR,5S)-1-4-(4-fluorophenyl)-N-[(2S)-2-hydroxypropyl]-4α-methyl-N-propyl-1,4,4α,5,6,7-hexahydrocyclopenta[f]indazole-5-carboxamide] |
| 67 | 725 | 5.1 | 9.9 | 76.9 | > 5 | 558 | – | – | CC(C)CN(C[C@@H](C)O)C(=O)[C@H]1CCC2=Cc3c(cnn3-c3ccc(F)cc3)C[C@@]21C [Compound 67, (4αR,5S)-1-(4-fluorophenyl)-N-[(2R)-2-hydroxypropyl]-N-isobutyl-4α-methyl-1,4,4α,5,6,7-hexahydrocyclopenta[f]indazole-5-carboxamide] |
